Source: patent publication US20230355626A1, “INHIBITORS OF HUMAN IMMUNODEFICIENCY VIRUS REPLICATION” (VIIV HEALTHCARE UK (NO.5) LIMITED, priority 2020, published 2023)

Experiments:
[1] = Compound cytotoxicity, XTT-based colorimetric assay; assay type: cell-based; settings: human; uninfected MT2 cells, day 4, XTT assay
Procedure, shortened: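 CC50 derived from XTT colorimetric signal measured on day 4 in MT2 cells that were not infected. All other steps followed the antiviral assay protocol.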

[2] = test system: recombinant NL4-3 virus; assay: HIV cell culture assay (antiviral activity, luciferase readout in infected MT-2 cells); assay type: cell-based; settings: Human immunodeficiency virus 1, NL43, MT2
Procedure, shortened: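 MT-2 cells infected for 4-5 days with 293T-derived NL4-3 reporter virus (nef partly replaced by Renilla luciferase) in serial compound dilutions. Live-cell luciferase read-out. EC50 from median effect equation fit.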

| Structure (SMILES) | CC50 at 4 day [1] | EC50 [2] |
| --- | --- | --- |
| Cn1nc(NS(C)(=O)=O)c2c(Cl)ccc(-n3c([C@H](Cc4cc(F)cc(F)c4)NC(=O)Cn4nc(C(F)F)c5c4C(F)(F)[C@@H]4C[C@H]54)nc4nc(OCC5CC(F)(F)C5)ccc4c3=O)c21 (atropisomer, axis not shown; (P)) [Example 31, N-((S)-1-((3P)-3-(4-chloro-1-methyl-3-(methylsulfonamido)-1H-indazol-7-yl)-7-((3,3-difluorocyclobutyl)methoxy)-4-oxo-3,4-dihydropyrido[2,3-d]pyrimidin-2-yl)-2-(3,5-difluorophenyl)ethyl)-2-((3bS,4aR)-3-(difluoromethyl)-5,5-difluoro-3b,4,4a,5-tetrahydro-1H-cyclopropa[3,4]cyclopenta[1,2-c]pyrazol-1-yl)acetamide] | > 100000 pM | 35 pM |
| Cn1nc(NS(C)(=O)=O)c2c(Cl)ccc(-n3c([C@H](Cc4cc(F)cc(F)c4)NC(=O)Cn4nc(C(F)F)c5c4C(F)(F)[C@@H]4C[C@H]54)nc4nc(OC5CCC(F)(F)CC5)ccc4c3=O)c21 (atropisomer, axis not shown; (P)) [Example 35, N-((S)-1-((3P)-3-(4-chloro-1-methyl-3-(methylsulfonamido)-1H-indazol-7-yl)-7-((4,4-difluorocyclohexyl)oxy)-4-oxo-3,4-dihydropyrido[2,3-d]pyrimidin-2-yl)-2-(3,5-difluorophenyl)ethyl)-2-((3bS,4aR)-3-(difluoromethyl)-5,5-difluoro-3b,4,4a,5-tetrahydro-1H-cyclopropa[3,4]cyclopenta[1,2-c]pyrazol-1-yl)acetamide] | > 100000 pM | 54 pM |
| Cn1nc(NS(C)(=O)=O)c2c(Cl)ccc(-n3c([C@H](Cc4cc(F)cc(F)c4)NC(=O)Cn4nc(C(F)F)c5c4C(F)(F)[C@@H]4C[C@H]54)nc4nc(Oc5ccc(F)cc5F)ccc4c3=O)c21 (atropisomer, axis not shown; (P)) [Example 36, N-((S)-1-((3P)-3-(4-chloro-1-methyl-3-(methylsulfonamido)-1H-indazol-7-yl)-7-(2,4-difluorophenoxy)-4-oxo-3,4-dihydropyrido[2,3-d]pyrimidin-2-yl)-2-(3,5-difluorophenyl)ethyl)-2-((3bS,4aR)-3-(difluoromethyl)-5,5-difluoro-3b,4,4a,5-tetrahydro-1H-cyclopropa[3,4]cyclopenta[1,2-c]pyrazol-1-yl)acetamide] | > 100000 pM | 81 pM |
| Cn1nc(NS(C)(=O)=O)c2c(Cl)ccc(-n3c([C@H](Cc4cc(F)cc(F)c4)NC(=O)Cn4nc(C(F)F)c5c4C(F)(F)[C@@H]4C[C@H]54)nc4nc(Oc5ccccc5F)ccc4c3=O)c21 (atropisomer, axis not shown; (P)) [Example 37, N-((S)-1-((3P)-3-(4-chloro-1-methyl-3-(methylsulfonamido)-1H-indazol-7-yl)-7-(2-fluorophenoxy)-4-oxo-3,4-dihydropyrido[2,3-d]pyrimidin-2-yl)-2-(3,5-difluorophenyl)ethyl)-2-((3bS,4aR)-3-(difluoromethyl)-5,5-difluoro-3b,4,4a,5-tetrahydro-1H-cyclopropa[3,4]cyclopenta[1,2-c]pyrazol-1-yl)acetamide] | > 100000 pM | 81 pM |
| Cn1nc(NS(C)(=O)=O)c2c(Cl)ccc(-n3c([C@H](Cc4cc(F)cc(F)c4)NC(=O)Cn4nc(C(F)F)c5c4C(F)(F)[C@@H]4C[C@H]54)nc4nc(OCC(F)(F)C(F)(F)C(F)(F)F)ccc4c3=O)c21 (atropisomer, axis not shown; (P)) [Example 39, N-((S)-1-((3P,3P)-3-(4-chloro-1-methyl-3-(methylsulfonamido)-1H-indazol-7-yl)-7-(2,2,3,3,4,4,4-heptafluorobutoxy)-4-oxo-3,4-dihydropyrido[2,3-d]pyrimidin-2-yl)-2-(3,5-difluorophenyl)ethyl)-2-((3bS,4aR)-3-(difluoromethyl)-5,5-difluoro-3b,4,4a,5-tetrahydro-1H-cyclopropa[3,4]cyclopenta[1,2-c]pyrazol-1-yl)acetamide] | > 100000 pM | 122 pM |
| Cn1nc(NS(C)(=O)=O)c2c(Cl)ccc(-n3c([C@H](Cc4cc(F)cc(F)c4)NC(=O)Cn4nc(C(F)F)c5c4C(F)(F)[C@@H]4C[C@H]54)nc4nc(OCC(F)(F)C(F)(F)C(F)(F)C(F)(F)F)ccc4c3=O)c21 (atropisomer, axis not shown; (P)) [Example 40, N-((S)-1-((3P,3P)-3-(4-chloro-1-methyl-3-(methylsulfonamido)-1H-indazol-7-yl)-7-((2,2,3,3,4,4,5,5,5-nonafluoropentyl)oxy)-4-oxo-3,4-dihydropyrido[2,3-d]pyrimidin-2-yl)-2-(3,5-difluorophenyl)ethyl)-2-((3bS,4aR)-3-(difluoromethyl)-5,5-difluoro-3b,4,4a,5-tetrahydro-1H-cyclopropa[3,4]cyclopenta[1,2-c]pyrazol-1-yl)acetamide] | > 100000 pM | 310 pM |
| Cn1nc(NS(C)(=O)=O)c2c(Cl)ccc(-n3c([C@H](Cc4cc(F)cc(F)c4)NC(=O)Cn4nc(C5CC5)c5c4C(F)(F)[C@@H]4C[C@H]54)nc4nc(OCC(F)(F)C(F)(F)F)ccc4c3=O)c21 (atropisomer, axis not shown; (P)) [Example 41, N-((S)-1-((3P, 3P)-3-(4-chloro-1-methyl-3-(methylsulfonamido)-1H-indazol-7-yl)-4-oxo-7-(2,2,3,3,3-pentafluoropropoxy)-3,4-dihydropyrido[2,3-d]pyrimidin-2-yl)-2-(3,5-difluorophenyl)ethyl)-2-((3bS,4aR)-3-cyclopropyl-5,5-difluoro-3b,4,4a,5-tetrahydro-1H-cyclopropa[3,4]cyclopenta[1,2-c]pyrazol-1-yl)acetamide] | > 100000 pM | 43 pM |
| Cn1nc(NS(C)(=O)=O)c2c(Cl)ccc(-n3c([C@H](Cc4cc(F)cc(F)c4)NC(=O)Cn4nc(C(F)F)c5c4C(F)(F)[C@@H]4C[C@H]54)nc4nc(OCC5CC5(F)F)ccc4c3=O)c21 (stereo partly drawn) [Example 33, N-((1S)-1-((3P)-3-(4-chloro-1-methyl-3-(methylsulfonamido)-1H-indazol-7-yl)-7-((2,2-difluorocyclopropyl)methoxy)-4-oxo-3,4-dihydropyrido[2,3-d]pyrimidin-2-yl)-2-(3,5-difluorophenyl)ethyl)-2-((3bS,4aR)-3-(difluoromethyl)-5,5-difluoro-3b,4,4a,5-tetrahydro-1H-cyclopropa[3,4]cyclopenta[1,2-c]pyrazol-1-yl)acetamide] | > 100000 pM | 37 pM |
| Cn1nc(NS(C)(=O)=O)c2c(Cl)ccc(-n3c([C@H](Cc4cc(F)cc(F)c4)NC(=O)Cn4nc(C(F)F)c5c4C(F)(F)[C@@H]4C[C@H]54)nc4nc(OCCOC5CC5(F)F)ccc4c3=O)c21 (stereo partly drawn) [Example 34, N-((1S)-1-((3P,3P)-3-(4-chloro-1-methyl-3-(methylsulfonamido)-1H-indazol-7-yl)-7-(2-(2,2-difluorocyclopropoxy)ethoxy)-4-oxo-3,4-dihydropyrido[2,3-d]pyrimidin-2-yl)-2-(3,5-difluorophenyl)ethyl)-2-((3bS,4aR)-3-(difluoromethyl)-5,5-difluoro-3b,4,4a,5-tetrahydro-1H-cyclopropa[3,4]cyclopenta[1,2-c]pyrazol-1-yl)acetamide] | > 100000 pM | 35 pM |
| Cn1nc(NS(C)(=O)=O)c2c(Cl)ccc(-n3c([C@H](Cc4cc(F)cc(F)c4)NC(=O)Cn4nc(C(F)F)c5c4C(F)(F)[C@@H]4C[C@H]54)nc4nc(OCCC5CC5(F)F)ccc4c3=O)c21 (stereo partly drawn) [Example 38, N-((1S)-1-((3P,3P)-3-(4-chloro-1-methyl-3-(methylsulfonamido)-1H-indazol-7-yl)-7-(2-(2,2-difluorocyclopropyl)ethoxy)-4-oxo-3,4-dihydropyrido[2,3-d]pyrimidin-2-yl)-2-(3,5-difluorophenyl)ethyl)-2-((3bS,4aR)-3-(difluoromethyl)-5,5-difluoro-3b,4,4a,5-tetrahydro-1H-cyclopropa[3,4]cyclopenta[1,2-c]pyrazol-1-yl)acetamide] | > 100000 pM | 37 pM |
